How the values were obtained:
Format in all cases: functional
K562 = assay: Cytotoxicity against human K562 cells assessed as growth inhibition after 48 hrs by sulforhodamine B assay; details: K562, 48 h
A549 [1] = assay: Cytotoxicity against human A549/ATCC cells assessed as growth inhibition after 48 hrs by sulforhodamine B assay; details: A549, 48 h
HCT-116 [2] = assay: Cytotoxicity against human HCT116 cells assessed as growth inhibition after 48 hrs by sulforhodamine B assay; details: HCT-116, 48 h
Malme-3M [3] = assay: Cytotoxicity against human MALME-3M cells assessed as growth inhibition after 48 hrs by sulforhodamine B assay
M14 = assay: Cytotoxicity against human M14 cells assessed as growth inhibition after 48 hrs by sulforhodamine B assay; details: M14, 48 h
OVCAR-8 [4] = assay: Cytotoxicity against human OVCAR8 cells assessed as growth inhibition after 48 hrs by sulforhodamine B assay; details: OVCAR-8, 48 h
CCRF-CEM [5] = assay: Cytotoxicity against human CCRF-CEM cells assessed as cell growth at 0.01 uM after 48 hrs by sulforhodamine B assay relative to control; details: read-out: Activity
MDA-MB-435 = assay: Cytotoxicity against human MDA-MB-435 cells assessed as cell growth at 0.01 uM after 48 hrs by sulforhodamine B assay relative to control; details: MDA-MB-435, 48 h, read-out: Activity
SF-268 = assay: Cytotoxicity against human SF268 cells assessed as cell growth at 0.01 uM after 48 hrs by sulforhodamine B assay relative to control; details: SF-268, 48 h, read-out: Activity
HT-29 [6] = assay: Cytotoxicity against human HT-29 cells assessed as cell growth at 0.01 uM after 48 hrs by sulforhodamine B assay relative to control; details: HT-29, 48 h, read-out: Activity
A549 [7] = assay: Cytotoxicity against human A549/ATCC cells assessed as cell growth at 0.01 uM after 48 hrs by sulforhodamine B assay relative to control; details: A549, 48 h, read-out: Activity
RPMI-8226 [8] = assay: Cytotoxicity against human RPMI8226 cells assessed as cell growth at 0.01 uM after 48 hrs by sulforhodamine B assay relative to control; details: RPMI-8226, 48 h, read-out: Activity
PC-3 = assay: Cytotoxicity against human PC3 cells assessed as cell growth at 0.01 uM after 48 hrs by sulforhodamine B assay relative to control; details: PC-3, 48 h, read-out: Activity
HCT-15 = assay: Cytotoxicity against human HCT15 cells assessed as cell growth at 0.1 uM after 48 hrs by sulforhodamine B assay relative to control; details: HCT-15, 48 h, read-out: Activity
HT-29 [9] = assay: Cytotoxicity against human HT-29 cells assessed as cell growth at 0.1 uM after 48 hrs by sulforhodamine B assay relative to control; details: HT-29, 48 h, read-out: Activity
SK-MEL-28 = assay: Cytotoxicity against human SK-MEL-28 cells assessed as cell growth at 0.1 uM after 48 hrs by sulforhodamine B assay relative to control; details: SK-MEL-28, 48 h, read-out: Activity
MDA-MB-468 = assay: Cytotoxicity against human MDA-MB-468 cells assessed as cell growth at 0.1 uM after 48 hrs by sulforhodamine B assay relative to control; details: MDA-MB-468, 48 h, read-out: Activity
CCRF-CEM [10] = assay: Cytotoxicity against human CCRF-CEM cells assessed as cell growth at 1 uM after 48 hrs by sulforhodamine B assay relative to control; details: read-out: Activity
NCI-H460 = assay: Cytotoxicity against human NCI-H460 cells assessed as cell growth at 1 uM after 48 hrs by sulforhodamine B assay relative to control; details: NCI-H460, 48 h, read-out: Activity
SW-620 [11] = assay: Cytotoxicity against human SW620 cells assessed as cell growth at 1 uM after 48 hrs by sulforhodamine B assay relative to control; details: SW-620, 48 h, read-out: Activity
UACC-257 = assay: Cytotoxicity against human UACC257 cells assessed as cell growth at 1 uM after 48 hrs by sulforhodamine B assay relative to control; details: UACC-257, 48 h, read-out: Activity
OVCAR-8 [12] = assay: Cytotoxicity against human OVCAR8 cells assessed as cell growth at 1 uM after 48 hrs by sulforhodamine B assay relative to control; details: OVCAR-8, 48 h, read-out: Activity
NCI-H226 [13] = assay: Cytotoxicity against human NCI-H226 cells assessed as cell growth at 10 uM after 48 hrs by sulforhodamine B assay relative to control; details: NCI-H226, 48 h, read-out: Activity
SW-620 [14] = assay: Cytotoxicity against human SW620 cells assessed as cell growth at 10 uM after 48 hrs by sulforhodamine B assay relative to control; details: SW-620, 48 h, read-out: Activity
U-251 = assay: Cytotoxicity against human U251 cells assessed as cell growth at 10 uM after 48 hrs by sulforhodamine B assay relative to control; details: U-251, 48 h, read-out: Activity
Malme-3M [15] = assay: Cytotoxicity against human MALME-3M cells assessed as cell growth at 10 uM after 48 hrs by sulforhodamine B assay relative to control; details: read-out: Activity
OVCAR-8 [16] = assay: Cytotoxicity against human OVCAR8 cells assessed as cell growth at 10 uM after 48 hrs by sulforhodamine B assay relative to control; details: OVCAR-8, 48 h, read-out: Activity
DU-145 = assay: Cytotoxicity against human DU145 cells assessed as cell growth at 10 uM after 48 hrs by sulforhodamine B assay relative to control; details: DU-145, 48 h, read-out: Activity
RPMI-8226 [17] = assay: Cytotoxicity against human RPMI8226 cells assessed as cell growth at 100 uM after 48 hrs by sulforhodamine B assay relative to control; details: RPMI-8226, 48 h, read-out: Activity
NCI-H226 [18] = assay: Cytotoxicity against human NCI-H226 cells assessed as cell growth at 100 uM after 48 hrs by sulforhodamine B assay relative to control; details: NCI-H226, 48 h, read-out: Activity
COLO 205 = assay: Cytotoxicity against human COLO205 cells assessed as cell growth at 100 uM after 48 hrs by sulforhodamine B assay relative to control; details: COLO 205, 48 h, read-out: Activity
HCT-116 [19] = assay: Cytotoxicity against human HCT116 cells assessed as cell growth at 100 uM after 48 hrs by sulforhodamine B assay relative to control; details: HCT-116, 48 h, read-out: Activity
SF-539 = assay: Cytotoxicity against human SF539 cells assessed as cell growth at 100 uM after 48 hrs by sulforhodamine B assay relative to control; details: SF-539, 48 h, read-out: Activity
SNB-19 = assay: Cytotoxicity against human SNB19 cells assessed as cell growth at 100 uM after 48 hrs by sulforhodamine B assay relative to control; details: SNB-19, 48 h, read-out: Activity
Malme-3M [20] = assay: Cytotoxicity against human MALME-3M cells assessed as cell growth at 100 uM after 48 hrs by sulforhodamine B assay relative to control; details: read-out: Activity
SN12C = assay: Cytotoxicity against human SN12C cells assessed as cell growth at 100 uM after 48 hrs by sulforhodamine B assay relative to control; details: read-out: Activity

COc1cc(C(=O)/C=C/c2cc(-c3ccc4c(c3)OCO4)n[nH]2)cc(OC)c1OC
GI50 (K562): 2.17 µM
LC50 (concentration killing 50% of cells) (K562): > 100 µM
TGI (K562): > 100 µM
GI50 (A549 [1]): 2.13 µM
LC50 (concentration giving 50% net cell kill) (A549 [1]): 30.1 µM
TGI (A549 [1]): 6.23 µM
GI50 (HCT-116 [2]): 1.9 µM
LC50 (HCT-116 [2]): > 100 µM
TGI (HCT-116 [2]): 4.63 µM
GI50 (Malme-3M [3]): 1.85 µM
LC50 (Malme-3M [3]): 15.3 µM
TGI (Malme-3M [3]): 4.69 µM
GI50 (M14): 2.91 µM
LC50 (concentration killing 50% of cells) (M14): 37.8 µM
TGI (M14): 9.21 µM
GI50 (OVCAR-8 [4]): 2.35 µM
LC50 (OVCAR-8 [4]): 24.8 µM
TGI (OVCAR-8 [4]): 6.37 µM
growth at 0.01 µM (CCRF-CEM [5]): 99%
growth at 0.01 µM (MDA-MB-435): 96%
growth at 0.01 µM (SF-268): 96%
growth at 0.01 µM (HT-29 [6]): 103%
growth at 0.01 µM (A549 [7]): 100%
growth at 0.01 µM (RPMI-8226 [8]): 101%
growth at 0.01 µM (PC-3): 97%
growth at 0.1 µM (HCT-15): 101%
growth at 0.1 µM (HT-29 [9]): 97%
growth at 0.1 µM (SK-MEL-28): 99%
growth at 0.1 µM (MDA-MB-468): 82%
growth at 1 µM (CCRF-CEM [10]): 83%
growth at 1 µM (NCI-H460): 90%
growth at 1 µM (SW-620 [11]): 78%
growth at 1 µM (UACC-257): 96%
growth at 1 µM (OVCAR-8 [12]): 93%
growth at 10 µM (NCI-H226 [13]): -41%
growth at 10 µM (SW-620 [14]): -57%
growth at 10 µM (U-251): -96%
growth at 10 µM (Malme-3M [15]): -41%
growth at 10 µM (OVCAR-8 [16]): -23%
growth at 10 µM (DU-145): -4%
growth at 100 µM (RPMI-8226 [17]): -47%
growth at 100 µM (NCI-H226 [18]): -46%
growth at 100 µM (COLO 205): -74%
growth at 100 µM (HCT-116 [19]): -47%
growth at 100 µM (SF-539): -85%
growth at 100 µM (SNB-19): -97%
growth at 100 µM (Malme-3M [20]): -91%
growth at 100 µM (SN12C): -96%
